Test results published in patent publication EP1172104A1, “SEAM SOFT CAPSULE PREPARATIONS CONTAINING DIHYDROBENZOFURAN DERIVATIVE” (CHUGAI SEIYAKU KABUSHIKI KAISHA, priority 1999, dated 2000).

Assays:
Assay type in all cases: physicochemical
[1] = Stability of BO-653 in various fat and oils (influence of oxygen, accelerated test at 80°C, HPLC); details: 17 hours
Protocol: The influence of oxygen on the stability of BO-653 in various fat and oils was tested. BO-653 was dissolved in soybean oil, olive oil, MCT, tricaprylin, and linoleic acid separately to give a concentration of 50% by weight. 70 mg of each of the solutions was placed into individual 5 cc glass bottles. Separately, 35 mg of BO-653 was directly placed into a 5 cc glass bottle. The samples were prepared in duplicate. One set of samples were subjected to an argon replacement of the headspace of the bottles and then tightly sealed, while the other set of samples were sealed without argon replacement. Accelerated test at 80°C was conducted using all of the samples.

[2] = Stability of seamed soft capsule formulations of BO-653 (3): Formulation 4, various storage conditions, HPLC
[3] = Stability of seamed soft capsule formulations of BO-653 (2): Formulation 3, shell thickness and glycerin content, HPLC; details: Formulation 3 (50% w/w in soybean oil)
Protocol: Formulation 3 obtained in Example 1 was stored at 50°C in a 100% oxygen atmosphere.

[4] = Stability of seamed soft capsule formulation of BO-653 (1): Formulations 1 and 2, accelerated tests, HPLC; details: 100% oxygen atmosphere
Protocol: Formulations 1 and 2 obtained in Example 1 were tested for their stability under the conditions below: Condition 1: • Formulation 1 was left at 40°C in a 100% oxygen atmosphere. Condition 2: • Formulation 1 was left at 50°C in a 100% oxygen atmosphere. Condition 3: • Formulation 2 was left at 50°C in a 100% oxygen atmosphere.
As a control, BO-653 was dissolved in soybean oil to give a concentration of 10% by weight and the solution was left at 40°C in a 100% oxygen atmosphere in the form that the solution was not filled into a soft capsule.

- residual ratio of BO-653 ([1]; 50% by weight in soybean oil, without argon replacement (presence of oxygen)): Relatively high stability
- residual ratio of BO-653 ([1]; BO-653 alone or 50% by weight in soybean oil, olive oil, MCT, tricaprylin or linoleic acid, with argon replacement (absence of oxygen)): little loss
- Residual ratio (%) of BO-653 ([2]; Formulation 4, BO-653 content in filling solution 4% by weight, 40°C, RH75% - 1M): 99.0%
- Residual ratio (%) of BO-653 ([2]; Formulation 4, BO-653 content in filling solution 4% by weight, 50°C, 100% oxygen atmosphere-1M): 100.0%
- Residual ratio (%) of BO-653 ([2]; Formulation 4, BO-653 content in filling solution 4% by weight, irradiation with 1,200,000 lux.hrs white light): 100.0%
- Residual ratio (%) of BO-653 ([2]; Formulation 4, BO-653 content in filling solution 4% by weight, irradiation with 1,200,000 lux.hrs white light followed by 400 W.hrs/m^2 UV rays): 98.0%
- Residual ratio (%) of BO-653 ([2]; Formulation 4, BO-653 content in filling solution 40% by weight, 40°C, RH75% - 1M): 100.1%
- Residual ratio (%) of BO-653 ([2]; Formulation 4, BO-653 content in filling solution 40% by weight, 50°C, 100% oxygen atmosphere-1M): 100.7%
- Residual ratio (%) of BO-653 ([2]; Formulation 4, BO-653 content in filling solution 40% by weight, irradiation with 1,200,000 lux.hrs white light): 100.0%
- Residual ratio (%) of BO-653 ([2]; Formulation 4, BO-653 content in filling solution 40% by weight, irradiation with 1,200,000 lux.hrs white light followed by 400 W.hrs/m^2 UV rays): 99.7%
- Residual ratio (%) of BO-653 ([2]; Formulation 4, BO-653 content in filling solution 80% by weight, 40°C, RH75% - 1M): 99.8%
- Residual ratio (%) of BO-653 ([2]; Formulation 4, BO-653 content in filling solution 80% by weight, 50°C, 100% oxygen atmosphere-1M): 101.0%
- Residual ratio (%) of BO-653 ([2]; Formulation 4, BO-653 content in filling solution 80% by weight, irradiation with 1,200,000 lux.hrs white light): 99.5%
- Residual ratio (%) of BO-653 ([2]; Formulation 4, BO-653 content in filling solution 80% by weight, irradiation with 1,200,000 lux.hrs white light followed by 400 W.hrs/m^2 UV rays): 99.8%
- Content (%) of BO-653 after left at 50°C in a 100% oxygen atmosphere for 1 month ([3]; Capsule No. 1: thickness 26 x 10^-3 inch (66 x 10^-2 mm), glycerin content 30.0): 99.4%
- Content (%) of BO-653 after left at 50°C in a 100% oxygen atmosphere for 1 month ([3]; Capsule No. 2: thickness 30 x 10^-3 inch (76 x 10^-2 mm), glycerin content 30.0): 99.9%
- Content (%) of BO-653 after left at 50°C in a 100% oxygen atmosphere for 1 month ([3]; Capsule No. 3: thickness 34 x 10^-3 inch (86 x 10^-2 mm), glycerin content 30.0): 99.7%
- Content (%) of BO-653 after left at 50°C in a 100% oxygen atmosphere for 1 month ([3]; Capsule No. 4: thickness 26 x 10^-3 inch (66 x 10^-2 mm), glycerin content 44.2): 98.8%
- Content (%) of BO-653 after left at 50°C in a 100% oxygen atmosphere for 1 month ([3]; Capsule No. 5: thickness 30 x 10^-3 inch (76 x 10^-2 mm), glycerin content 44.2): 100.0%
- Content (%) of BO-653 after left at 50°C in a 100% oxygen atmosphere for 1 month ([3]; Capsule No. 6: thickness 34 x 10^-3 inch (86 x 10^-2 mm), glycerin content 44.2): 100.8%
- Content (%) of BO-653 after left at 50°C in a 100% oxygen atmosphere for 1 month ([3]; Capsule No. 8: thickness 30 x 10^-3 inch (76 x 10^-2 mm), glycerin content 56.4): 97.0%
- Content (%) of BO-653 after left at 50°C in a 100% oxygen atmosphere for 1 month ([3]; Capsule No. 9: thickness 34 x 10^-3 inch (86 x 10^-2 mm), glycerin content 56.4): 98.8%
- Residual ratio (%) of BO-653 ([4]; Condition 1: Formulation 1 (10% w/w in soybean oil, seamed soft capsule), 40°C, 1 month): 100.7%
- Residual ratio (%) of BO-653 ([4]; Condition 2: Formulation 1 (10% w/w in soybean oil, seamed soft capsule), 50°C, 2 weeks): 99.6%
- Residual ratio (%) of BO-653 ([4]; Condition 3: Formulation 2 (10% w/w in MCT, seamed soft capsule), 50°C, 3 weeks): 92.8%
- Residual ratio (%) of BO-653 ([4]; Control: 10% by weight solution in soybean oil not filled into a soft capsule, 40°C, 1 month): < 0.2%
Substance: 4,6-di-tert-butyl-2,2-di-n-pentyl-5-hydroxy-2,3-dihydrobenzofuran [BO-653]
